From US20260207600A1, “METHODS OF TREATMENT WITH MYOSIN MODULATOR” (MYOKARDIA, INC., priority 2019, published 2026)

Tested on: subjects with symptomatic non-obstructive hypertrophic cardiomyopathy (nHCM)
Assay: […]-HCM Phase 2 randomized, double-blind, placebo-controlled, concentration-guided study
Format: in vivo, human
Set-up: Overall KCCQ Summary Score / Clinical KCCQ Summary Score / Change in Overall KCCQ Summary Score, Mean / Change in Clinical KCCQ Summary Score, Mean / Change from Baseline in Overall KCCQ Summary Score, Mean / Change from Baseline in Clinical KCCQ Summary Score, Mean: scale not given here
Conditions: for Composite functional endpoint Type 1, % / Composite functional endpoint Type 2, % / Met composite functional endpoint, either type, %: Combined Subgroup
Source text: This is a Phase 2 trial designed to assess the safety and tolerability of a range of exposures over 16 weeks of treatment in subjects with symptomatic, non-obstructive HCM. All study subjects were required to be diagnosed with non-obstructive HCM, with left ventricular wall thickness either ≥15 mm or ≥13 mm with a family history of HCM, LVEF≥55%, NYHA classifications of Class II or III, and NT-proBNP levels of greater than 300 pg/mL at rest. Baseline characteristics, such as age, weight, gender, pathogenic mutation status, background beta blocker use, NYHA classification and exercise capacity were approximately evenly distributed between active and placebo arms.
This double-blind study enrolled 59 individuals with nHCM (Left ventricular outflow tract gradient<30 mmHg; resting or provoked), NYHA Class II or III, and LVEF≥55%. Subjects were randomized 1:1:1 to one of two target plasma drug concentrations (Group 1: ~200 ng/mL and Group 2: ~ 500 ng/ml) or placebo for 16 weeks, followed by an 8-week washout. […] Predefined criteria, including LVEF (LVEF≤45%), guided study drug discontinuation if indicated. Cardiopulmonary exercise testing was performed at baseline and Week 16 to assess the impact on exercise capacity.
Dose adjustments will be based on PK parameters. Assessments include safety, standardized cardiopulmonary exercise testing (CPET) with measurement of peak oxygen consumption, echocardiography to evaluate left ventricular ejection fraction (LVEF) and parameters of diastolic function, symptoms, quality of life, daily step counts, and NT-proBNP at rest and after exercise. In addition, subjects may consent to hypertrophic cardiomyopathy genotyping and pharmacogenetic sampling.
Cardiac Troponin I levels were evaluated on plasma and serum samples of subjects at baseline and at various time points in the trial (Abbott Architect Stat Troponin-I assay (Ref. 2K41)). Cardiac Troponin T levels were evaluated on plasma and serum samples of subjects at baseline and at various time points in the trial (Roche Elecsys Troponin T hs assay) (Ref. 08469873190) performed on a cobas e 801 analyzer). NT-proBNP levels were evaluated on plasma samples using the Roche Elecsys proBNPII assay (Ref. 07027664190) on a cobas e 801 analyzer.
5 mg QD was used as the starting dose for the study. All subjects in the active treatment groups started on 5 mg QD. […] PK modeling was used to guide blinded dose adjustment at the Week 6 visit, based on the plasma concentrations collected at Week 4. Subjects in the placebo group underwent the same assessments in order to preserve the blind. […] Subjects were instructed to take the drug under fasting conditions, at approximately the same time each day, and with 8 ounces of water.
To achieve the target concentration, if a subject's Week 4 concentration was >450 ng/ml, the subject's dose was decreased to 2.5 mg QD; if Week 4 concentration was 110-450 ng/mL, the dose was maintained at 5 mg QD; and if Week 4 concentration was <110 ng/mL, the dose was increased to 10 mg QD.
Subjects were monitored for adverse events (AE), including high blood plasma concentration, systolic dysfunction, QT prolongation, and LVEF decrease. If any of the following thresholds were hit PK 1000 or more, QTcF 500, or LVEF 45%, the subjects were discontinued on drug. Specifically, high blood plasma concentration was defined as blood plasma concentration greater than or equal to 1000 ng/ml; QT prolongation was defined as QTcF greater than or equal to 500 ms; and LVEF shortening was defined as LVEF less than or equal to 45% (including serious adverse event (SAE) for LVEF less than or equal to 30%).
Efficacy and pharmacodynamics assessments were also made. Resting transthoracic echocardiography measurements were taken at Weeks 4, 8, 12 and 16. Ejection fraction (2-D) and LV frantional shortening were analyzed along with other echocardiographic at baseline measures including measure of diastolic function. […]

[1] = Elevated Troponin subgroup (N = 13), Mean
[2] = Elevated Troponin subgroup, Mean Difference vs Placebo
[3] = ITT, Group 1 ~200 ng/mL (n = 19)
[4] = ITT, Group 2 ~500 ng/mL (n = 21)
[5] = ITT, Week 16, pooled-mavacamten group
[6] = Other subgroup, Mean Difference vs Placebo
[7] = Subgroup with Elevated E/e′ at Baseline, Difference mavacamten vs placebo
[8] = Subgroup with Elevated E/e′ at Baseline, Pooled (n = 14)
[9] = Subgroup with Elevated cTnI at Baseline, Difference mavacamten vs placebo
[10] = Subgroup with Elevated cTnI at Baseline, Pooled (n = 13)
[11] = week 16, pooled-mavacamten group

Compound: CC(C)n1c(=O)cc(N[C@@H](C)c2ccccc2)[nH]c1=O [mavacamten, (S)-3-Isopropyl-6-((1-phenylethyl)amino)pyrimidine-2, 4(1H,3H)-dione]
- participants with a decrease in LVEF to ≤45% (5 participants among the 40 receiving active treatment, weeks 11-12): 12.5%
- Composite functional endpoint Type 1, % (Group 1 ~200 ng/mL (n = 9)): (11.1) %
- Composite functional endpoint Type 2, % (Group 1 ~200 ng/mL (n = 9)): (22.2) %
- Met composite functional endpoint, either type, % (Group 1 ~200 ng/mL (n = 9)): (33.3) %
- Composite functional endpoint Type 1, % (Group 2 ~500 ng/mL (n = 12)): (8.3) %
- Composite functional endpoint Type 2, % (Group 2 ~500 ng/mL (n = 12)): (25.0) %
- Met composite functional endpoint, either type, % (Group 2 ~500 ng/mL (n = 12)): (33.3) %
- Composite functional endpoint Type 1, % (Pooled (n = 21)): (9.5) %
- Composite functional endpoint Type 2, % (Pooled (n = 21)): (23.8) %
- Met composite functional endpoint, either type, % (Pooled (n = 21)): (33.3) %
- Average Daily Accelerometry Unit [1]: 136328
- Clinical KCCQ Summary Score [1]: 6.891
- NYHA Class [1]: −0.462
- Overall KCCQ Summary Score [1]: 6.410
- Peak VO2 [1]: 1.475 mL/min/kg
- Serum NT-proBNP [1]: -950.462 ng/L
- Serum Troponin I [1]: -0.123 ng/mL
- Average Daily Accelerometry Unit [2]: 350347
- Clinical KCCQ Summary Score [2]: 8.766
- NYHA Class [2]: −0.262
- Overall KCCQ Summary Score [2]: 1.896
- Peak VO2 [2]: 2.695 mL/min/kg
- Serum NT-proBNP [2]: -784.062 ng/L
- Serum Troponin I [2]: -0.083 ng/mL
- participants achieving the composite functional endpoint (ITT, Group 1): 16%
- Change in Clinical KCCQ Summary Score, Mean [3]: 0.11
- Change in LVEDV, Mean [3]: 1.15 mL
- Change in LVEF, Mean [3]: −2.30%
- Change in Lateral e′, Mean [3]: 0.34 cm/s
- Change in NYHA Class, Mean [3]: −0.6
- Change in Overall KCCQ Summary Score, Mean [3]: 0.35
- Change in Peak VO2, Mean [3]: 0.36 mL/min/kg
- Change in Septal e′, Mean [3]: 0.64 cm/s
- NT-proBNP, Geometric mean, percent change [3]: −47.1%
- cTnI, Geometric mean, percent change [3]: −23.4%
- participants achieving the composite functional endpoint (ITT, Group 2): 29%
- Change in Clinical KCCQ Summary Score, Mean [4]: 5.66
- Change in LVEDV, Mean [4]: 6.50 mL
- Change in LVEF, Mean [4]: −5.61%
- Change in Lateral e′, Mean [4]: 1.46 cm/s
- Change in NYHA Class, Mean [4]: −0.3
- Change in Overall KCCQ Summary Score, Mean [4]: 6.24
- Change in Peak VO2, Mean [4]: 0.12 mL/min/kg
- Change in Septal e′, Mean [4]: 1.60 cm/s
- NT-proBNP, Geometric mean, percent change [4]: −57.9%
- cTnI, Geometric mean, percent change [4]: −41.0%
- Change in Clinical KCCQ Summary Score, Mean (ITT, Pooled (n = 40)): 3.37
- Change in LVEDV, Mean (ITT, Pooled (n = 40)): 4.04 mL
- Change in LVEF, Mean (ITT, Pooled (n = 40)): −4.09%
- Change in Lateral e′, Mean (ITT, Pooled (n = 40)): 0.94 cm/s
- Change in NYHA Class, Mean (ITT, Pooled (n = 40)): −0.4
- Change in Overall KCCQ Summary Score, Mean (ITT, Pooled (n = 40)): 3.82
- Change in Peak VO2, Mean (ITT, Pooled (n = 40)): 0.22 mL/min/kg
- Change in Septal e′, Mean (ITT, Pooled (n = 40)): 1.17 cm/s
- NT-proBNP, Geometric mean, percent change (ITT, Pooled (n = 40)): −53.2%
- cTnI, Geometric mean, percent change (ITT, Pooled (n = 40)): −34.0%
- cTnI geometric mean difference [5]: -0.008 ng/mL
- cTnI geometric mean, decrease [5]: 34%
- Average Daily Accelerometry Unit (Other subgroup (N = 27), Mean): 82413
- Clinical KCCQ Summary Score (Other subgroup (N = 27), Mean): 1.195
- NYHA Class (Other subgroup (N = 27), Mean): −0.417
- Overall KCCQ Summary Score (Other subgroup (N = 27), Mean): 2.210
- Peak VO2 (Other subgroup (N = 27), Mean): -0.530 mL/min/kg
- Serum NT-proBNP (Other subgroup (N = 27), Mean): -280.667 ng/L
- Serum Troponin I (Other subgroup (N = 27), Mean): -0.003 ng/mL
- Average Daily Accelerometry Unit [6]: 293157
- Clinical KCCQ Summary Score [6]: −5.964
- NYHA Class [6]: 0.122
- Overall KCCQ Summary Score [6]: −4.495
- Peak VO2 [6]: -1.807 mL/min/kg
- Serum NT-proBNP [6]: -178.513 ng/L
- Serum Troponin I [6]: -0.004 ng/mL
- Change from Baseline in Clinical KCCQ Summary Score, Mean [7]: 4.1
- Change from Baseline in LVEDVi, Mean [7]: 3.9 mL/m^2
- Change from Baseline in NT-proBNP, Mean [7]: -355 ng/L
- Change from Baseline in NYHA Class, Mean [7]: 0.0
- Change from Baseline in Overall KCCQ Summary Score, Mean [7]: 0.4
- Change from Baseline in Peak VO2, Mean [7]: 1.9 mL/min/kg
- Change from Baseline in cTnI, Mean [7]: -0.07 ng/mL
- Change from Baseline in Clinical KCCQ Summary Score, Mean [8]: 4.6
- Change from Baseline in LVEDVi, Mean [8]: 2.8 mL/m^2
- Change from Baseline in NT-proBNP, Mean [8]: -656 ng/L
- Change from Baseline in NYHA Class, Mean [8]: −0.4
- Change from Baseline in Overall KCCQ Summary Score, Mean [8]: 4.7
- Change from Baseline in Peak VO2, Mean [8]: 1.2 mL/min/kg
- Change from Baseline in cTnI, Mean [8]: -0.09 ng/mL
- Change from Baseline in Clinical KCCQ Summary Score, Mean [9]: 8.8
- Change from Baseline in LVEDVi, Mean [9]: 0.042 mL/m^2
- Change from Baseline in NT-proBNP, Mean [9]: -784 ng/L
- Change from Baseline in NYHA Class, Mean [9]: −0.3
- Change from Baseline in Overall KCCQ Summary Score, Mean [9]: 1.9
- Change from Baseline in Peak VO2, Mean [9]: 2.70 mL/min/kg
- Change from Baseline in cTnI, Mean [9]: -0.083 ng/mL
- Change from Baseline in Clinical KCCQ Summary Score, Mean [10]: 6.9
- Change from Baseline in LVEDVi, Mean [10]: 0.79 mL/m^2
- Change from Baseline in NT-proBNP, Mean [10]: -951 ng/L
- Change from Baseline in NYHA Class, Mean [10]: −0.5
- Change from Baseline in Overall KCCQ Summary Score, Mean [10]: 6.4
- Change from Baseline in Peak VO2, Mean [10]: 1.47 mL/min/kg
- Change from Baseline in cTnI, Mean [10]: -0.12 ng/mL
- subjects with transient ejection fraction reductions below the protocol-defined threshold of 45% (active drug arms): five
- participants achieving the composite functional endpoint (combined subgroup (elevated cTnI or E/e′average >14 at baseline), mavacamten-treated): 33%
- study subjects in whom cTnI levels remained unchanged (elevated cTnI subgroup, week 16 (2 of 13)): 15.4%
- study subjects in whom cTnI levels decreased (elevated cTnI subgroup, week 16 vs baseline (11 of 13)): 84.6%
- Serious adverse events (SAEs), frequency in subjects (subjects receiving mavacamten, placebo arm 21%): 10%
- percentage change in cardiac troponin I from baseline (treated individuals): 30-80%
- NT-proBNP geometric mean, decrease (week 16, Group 1): 47%
- NT-proBNP geometric mean, decrease (week 16, Group 2): 58%
- NT-proBNP geometric mean difference [11]: -435 pg/mL
- NT-proBNP geometric mean, decrease [11]: 53%
